Reference: the supplement of paper PMC10307832

Columns and labels:
Assay in all cases: relative viability (nuclei count vs DMSO), 5 days (fraction); higher = more cells survive
A-427 = system: A-427
Outline: (§1)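 Medians of duplicate plates are given as relative viability. That measure is the nuclei count in treated wells divided by the count in vehicle wells. Counts were taken on 4× images of lung cancer cell lines in 1536-well plates, 5 days after pin-tool dosing the day after seeding with one drug alone or a fixed anchor-drug dose plus five library-drug doses (not always all listed) in √10 steps.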

ABC-1 = system: ABC-1
Outline: as §1

EMC-BAC-2 = system: EMC-BAC-2
Outline: as §1

HARA = system: HARA
Outline: as §1

HOP-62 = system: HOP-62
Outline: as §1

LK-2 = system: LK-2
Outline: as §1

LXF-289 = system: LXF-289
Outline: as §1

NCI-H1792 = system: NCI-H1792
Outline: as §1

NCI-H1944 = system: NCI-H1944
Outline: as §1

NCI-H1993 = system: NCI-H1993
Outline: as §1

NCI-H2009 = system: NCI-H2009
Outline: as §1

NCI-H2170 = system: NCI-H2170
Outline: as §1

NCI-H3122 = system: NCI-H3122
Outline: as §1

NCI-H322M = system: NCI-H322M
Outline: as §1

NCI-H522 = system: NCI-H522
Outline: as §1

NCI-H596 = system: NCI-H596
Outline: as §1

NCI-H727 = system: NCI-H727
Outline: as §1

PC-3 [JPC-3] = system: PC-3 [JPC-3]
Outline: as §1

SK-MES-1 = system: SK-MES-1
Outline: as §1

SW 1573 = system: SW 1573
Outline: as §1

SW 900 = system: SW 900
Outline: as §1

Molecule `Nc1ccn([C@@H]2O[C@H](CO)[C@@H](O)[C@@H]2O)c(=O)n1` [Cytarabine] + Nc1ncn([C@H]2C[C@H](O)[C@@H](CO)O2)c(=O)n1 [Decitabine] (partner 2 µM) has a relative viability (A-427; first compound 0.005 µM) of 0.475, a relative viability (A-427; first compound 0.01581 µM) of 0.421 and a relative viability (A-427; first compound 0.05 µM) of 0.361. For the same molecule, the relative viability (A-427; first compound 0.1581 µM) was 0.259, the relative viability (A-427; first compound 0.5 µM) was 0.263 and the relative viability (ABC-1; first compound 0.005 µM) was 1.13. It also gave a relative viability (ABC-1; first compound 0.01581 µM) of 1.02, a relative viability (ABC-1; first compound 0.05 µM) of 0.925 and a relative viability (ABC-1; first compound 0.1581 µM) of 0.786. The relative viability (ABC-1; first compound 0.5 µM) was 0.611, the relative viability (EMC-BAC-2; first compound 0.005 µM) was 0.943 and the relative viability (EMC-BAC-2; first compound 0.01581 µM) was 0.836. It also gave a relative viability (EMC-BAC-2; first compound 0.05 µM) of 0.597, a relative viability (EMC-BAC-2; first compound 0.1581 µM) of 0.315 and a relative viability (EMC-BAC-2; first compound 0.5 µM) of 0.332. For the same molecule, the relative viability (HARA; first compound 0.005 µM) was 0.448, the relative viability (HARA; first compound 0.01581 µM) was 0.236 and the relative viability (HARA; first compound 0.05 µM) was 0.347. For the same molecule, the relative viability (HARA; first compound 0.1581 µM) was 0.173, the relative viability (HARA; first compound 0.5 µM) was 0.18 and the relative viability (HOP-62; first compound 0.005 µM) was 0.222. It also gave a relative viability (HOP-62; first compound 0.01581 µM) of 0.189, a relative viability (HOP-62; first compound 0.05 µM) of 0.179 and a relative viability (HOP-62; first compound 0.1581 µM) of 0.162. It also gave a relative viability (HOP-62; first compound 0.5 µM) of 0.126, a relative viability (LK-2; first compound 0.005 µM) of 0.234 and a relative viability (LK-2; first compound 0.01581 µM) of 0.249. The relative viability (LK-2; first compound 0.05 µM) was 0.15, the relative viability (LK-2; first compound 0.1581 µM) was 0.0989 and the relative viability (LK-2; first compound 0.5 µM) was 0.132. The relative viability (LXF-289; first compound 0.005 µM) was 0.387, the relative viability (LXF-289; first compound 0.01581 µM) was 0.312 and the relative viability (LXF-289; first compound 0.05 µM) was 0.314. It also gave a relative viability (LXF-289; first compound 0.1581 µM) of 0.227, a relative viability (LXF-289; first compound 0.5 µM) of 0.197 and a relative viability (NCI-H1792; first compound 0.01581 µM) of 0.647. For the same molecule, the relative viability (NCI-H1792; first compound 0.05 µM) was 0.387, the relative viability (NCI-H1792; first compound 0.1581 µM) was 0.251 and the relative viability (NCI-H1792; first compound 0.5 µM) was 0.205. It also gave a relative viability (NCI-H1944; first compound 0.005 µM) of 0.335, a relative viability (NCI-H1944; first compound 0.01581 µM) of 0.347 and a relative viability (NCI-H1944; first compound 0.05 µM) of 0.319. For the same molecule, the relative viability (NCI-H1944; first compound 0.1581 µM) was 0.194, the relative viability (NCI-H1944; first compound 0.5 µM) was 0.151 and the relative viability (NCI-H1993; first compound 0.005 µM) was 0.584. For the same molecule, the relative viability (NCI-H1993; first compound 0.01581 µM) was 0.441, the relative viability (NCI-H1993; first compound 0.05 µM) was 0.516 and the relative viability (NCI-H1993; first compound 0.1581 µM) was 0.471. The relative viability (NCI-H1993; first compound 0.5 µM) was 0.206, the relative viability (NCI-H2009; first compound 0.005 µM) was 0.325 and the relative viability (NCI-H2009; first compound 0.01581 µM) was 0.363. It also gave a relative viability (NCI-H2009; first compound 0.05 µM) of 0.342, a relative viability (NCI-H2009; first compound 0.1581 µM) of 0.243 and a relative viability (NCI-H2009; first compound 0.5 µM) of 0.189. The relative viability (NCI-H2170; first compound 0.005 µM) was 0.393, the relative viability (NCI-H2170; first compound 0.01581 µM) was 0.346 and the relative viability (NCI-H2170; first compound 0.05 µM) was 0.355. It also gave a relative viability (NCI-H2170; first compound 0.1581 µM) of 0.254, a relative viability (NCI-H2170; first compound 0.5 µM) of 0.241 and a relative viability (NCI-H3122; first compound 0.005 µM) of 0.459. For the same molecule, the relative viability (NCI-H3122; first compound 0.01581 µM) was 0.383, the relative viability (NCI-H3122; first compound 0.05 µM) was 0.374 and the relative viability (NCI-H3122; first compound 0.1581 µM) was 0.228. For the same molecule, the relative viability (NCI-H3122; first compound 0.5 µM) was 0.26, the relative viability (NCI-H322M; first compound 0.005 µM) was 0.687 and the relative viability (NCI-H322M; first compound 0.01581 µM) was 0.608. The relative viability (NCI-H322M; first compound 0.05 µM) was 0.472, the relative viability (NCI-H322M; first compound 0.1581 µM) was 0.472 and the relative viability (NCI-H322M; first compound 0.5 µM) was 0.448. It also gave a relative viability (NCI-H522; first compound 0.005 µM) of 0.653, a relative viability (NCI-H522; first compound 0.01581 µM) of 0.608 and a relative viability (NCI-H522; first compound 0.05 µM) of 0.628. The relative viability (NCI-H522; first compound 0.1581 µM) was 0.484, the relative viability (NCI-H522; first compound 0.5 µM) was 0.335 and the relative viability (NCI-H596; first compound 0.005 µM) was 0.858. It also gave a relative viability (NCI-H596; first compound 0.01581 µM) of 0.916, a relative viability (NCI-H596; first compound 0.05 µM) of 0.658 and a relative viability (NCI-H596; first compound 0.1581 µM) of 0.581. The relative viability (NCI-H596; first compound 0.5 µM) was 0.767, the relative viability (NCI-H727; first compound 0.005 µM) was 0.964 and the relative viability (NCI-H727; first compound 0.01581 µM) was 0.713. The relative viability (NCI-H727; first compound 0.05 µM) was 0.443, the relative viability (NCI-H727; first compound 0.1581 µM) was 0.474 and the relative viability (NCI-H727; first compound 0.5 µM) was 0.522. The relative viability (PC-3 [JPC-3]; first compound 0.005 µM) was 0.824, the relative viability (PC-3 [JPC-3]; first compound 0.01581 µM) was 0.763 and the relative viability (PC-3 [JPC-3]; first compound 0.05 µM) was 0.581. For the same molecule, the relative viability (PC-3 [JPC-3]; first compound 0.1581 µM) was 0.468, the relative viability (PC-3 [JPC-3]; first compound 0.5 µM) was 0.507 and the relative viability (SK-MES-1; first compound 0.005 µM) was 0.29. It also gave a relative viability (SK-MES-1; first compound 0.01581 µM) of 0.211, a relative viability (SK-MES-1; first compound 0.05 µM) of 0.205 and a relative viability (SK-MES-1; first compound 0.1581 µM) of 0.183. For the same molecule, the relative viability (SK-MES-1; first compound 0.5 µM) was 0.155, the relative viability (SW 1573; first compound 0.005 µM) was 0.347 and the relative viability (SW 1573; first compound 0.01581 µM) was 0.184. For the same molecule, the relative viability (SW 1573; first compound 0.05 µM) was 0.247, the relative viability (SW 1573; first compound 0.1581 µM) was 0.121 and the relative viability (SW 1573; first compound 0.5 µM) was 0.083. The relative viability (SW 900; first compound 0.005 µM) was 0.384, the relative viability (SW 900; first compound 0.01581 µM) was 0.344 and the relative viability (SW 900; first compound 0.05 µM) was 0.325. For the same molecule, the relative viability (SW 900; first compound 0.1581 µM) was 0.199 and the relative viability (SW 900; first compound 0.5 µM) was 0.287.
